pKd: −log10 of the molar value.
Tests used:
CD44 IgG1Fc [1] = biological target: T1, CD44 IgG1Fc (Homo sapiens, UniProt P16070); experiment: Direct ELISA: binding of coated macromolecules to CD44-IgG1Fc versus IgG1Fc; conditions: wells coated at 400 μg/mL; CD44-IgG1Fc or IgG1Fc 1 μg/mL; p<0.001 where significant
T1 construct: purchased R & D systems
Experimental: High-binding microtiter plates (Corning, Sigma Aldrich, USA) were coated with rhPRG4 (Mr≅240 KDa), high molecular weight HA (HMW HA; Mr≈1,500 KDa) (R & D System, USA), medium molecular weight HA (MMW HA; Mr≈300 KDa) (R & D System) and vitronectin (Mr≅75 KDa) (Sigma Aldrich) at 400 μg/mL in PBS buffer (100 μL per well) overnight at 4° C. rhPRG4 is a full-length product produced by CHO-M cells (Lubris, Framingham, Mass., USA). Following washing with PBS+0.1% Tween 20, wells were blocked with 2% bovine serum albumin (BSA; 300 μL per well) for at least 2 hours at room temperature. CD44-IgG1Fc (R & D systems) or IgG1Fc (R & D systems), each at 1 μg/mL (100 μl per well), were added to the plate and incubated for 60 min at room temperature. Following washing with PBS+0.1% tween 20, anti-IgG1Fc-HRP (Sigma Aldrich) was added at 1:10,000 dilution (100 μL per well) and incubated for 60 min at room temp. Following washing with PBS+0.1% tween 20, the assay was developed using 1-step Turbo TMB ELISA reagent (ThermoScientific, USA) and absorbance was measured at 450 nm. The data represents an average of 4 independent assays, each with triplicate wells per group.

CD44 IgG1Fc [2] = biological target: T1, CD44 IgG1Fc; experiment: Surface plasmon resonance binding of rhPRG4 to CD44 and competition with HMW HA
Experimental: Binding of rhPRG4 to CD44-IgG1Fc was investigated using surface plasmon resonance (Biacore T100, GE Healthcare Lifesciences, NJ, USA). Series S chips were functionalized using the human antibody capture kit (GE Life Sciences) and either CD44-IgG1Fc or IgG1FC was allowed to bind to the surface of the functionalized chips in flow cell 1 (Fc1) and flow cell 2 (Fc2), respectively. rhPRG4 was injected at 30 μL/min for 8 min at concentrations of 300, 250, 200, 150, 100 and 50 μg/mL followed by a 10 min dissociation using 0.1M HEPES, 1.5M NaCl, 30 mM EDTA, and 0.5% P20 (GE Life Sciences). The surface of the chip was regenerated at the end of each cycle with 1 min pulse of 3M MgCl2. Each analyte concentration was injected in duplicate. The resulting curves were double referenced (i.e. Fc2-Fc1, followed by subtraction of the 0 μg/mL curve). The binding kinetics and binding affinity were determined by BiaEvaluation software, using 1:1 binding/conformational change model or by steady-state equilibrium, respectively. To study the competition between rhPRG4 and HMW HA in binding to CD44, rhPRG4 was injected at concentrations ranging between 0 and 300 μg/mL as described above. Following the end of dissociation phase, HMW HA was injected at 50 μg/mL (30 μL per min) for 1 min. […]

[3] = test system: normal synovial fluid cells; experiment: Cytokines secreted by normal synoviocytes (Luminex); assay type: cell-based, human; conditions: rhPRG4 90 μg/mL, 24 hours, lubricin vs. PBS
Experimental: (§1) Synovial fluid cells were obtained from normal and osteoarthritic (OA) patients and purified with CD90+ following an immune cell depletion. The cells were plated at 10,000 per well and suspended in media containing DMEM, heat-inactivated Hyclone FBS (10%), and Anti-Anti (1%). The assays contained the cell suspension (cells+ media) at 180 μL and the ligands at 20 μL for a total volume of 200 μL. Recombinant lubricin (rhPRG4) was then introduced to the cells at a concentration of 90 μg/mL and the negative control was PBS. The plate was then incubated at 37° C. at 5% CO2 for 24 hours, after which the supernatants were collected for cytokine analysis via the Luminex multiplex platform.

[4] = test system: sodium urate crystal induced joint pain; experiment: Urate crystal gout model, Von Frey paw withdrawal; assay type: in vivo; conditions: rhPRG4 injection after urate crystals; two rats per group
Experimental: Male Lewis rats (10 weeks old; n=4) were injected with MSU suspension (50 μL; 5 mg/mL; Invivogen, California) in their knee joints. At 1 hour following MSU injection, rat knee joints were treated with 50 μL phosphate buffered saline (PBS; n=2) or rhPRG4 (50 μL; 2 mg/mL) (n=2). Paw withdrawal pressures were measured using an electronic Von Frey instrument, and data is present as percent change from baseline values.
Rats undergoing injection of sodium urate crystals were studied as a model of gout. 24 hours following the sodium urate crystal administration, rats developed joint pain. Two rats received saline while another two rats received rhPRG4 injection 24 hours after the urate crystals were introduced. These rats were studied every 12 hours utilizing the Von Frey method. This method determines afferent pain sensitization as a result of joint inflammation by probing the paws of the affected limb with a thin filament wire.

[5] = test system: osteoarthritic (OA) synovial fluid cells; experiment: Cytokines secreted by osteoarthritic synoviocytes (Luminex); assay type: cell-based, human; conditions: rhPRG4 90 μg/mL, 24 hours, versus PBS
Experimental: as §1

whole blood = experiment: Lubricin on TNF-α mediated inflammatory cytokine generation in whole blood; assay type: cell-based, human
Experimental: The effect of lubricin on TNF-α mediated inflammatory cytokine generation was studied using Biochip Array technology. Recombinant TNF-α was used as a trigger to generate inflammatory cytokines in whole blood. The effect of lubricin was studied on the TNF-α mediated generation of various cytokines. TNF-α alone at a concentration of […] was supplemented to the whole blood which was incubated for 60 minutes at 37° C. TNF-α was supplemented to whole blood in a 1:10 dilution. The modulatory effects of lubricin on TNF-α-mediated generation of various cytokines were studied by supplementing lubricin at 0.57 mg/mL in the whole blood immediately prior to addition of TNF-α. After 60 minutes plasma was obtained from centrifugation and analyzed for inflammatory cytokine using Randox Biochip arrays.

Q: What does the source list for “rhPRG4: full-length recombinant human PRG4 (lubricin) glycoprotein produced by CHO-M cells (Lubris), Mr≅240 KDa”?
A: 450 nm absorbance in the CD44-IgG1Fc group versus the IgG1Fc group (CD44 IgG1Fc [1]): significantly higher; pKd (CD44 IgG1Fc [2]; immobilized CD44-IgG1Fc, based on a rhPRG4 molecular weight of 240 KDa, read-out: apparent Kd): ~7.42; effect on binding of HMW HA to recombinant CD44 (CD44 IgG1Fc [2]; rhPRG4 0-300 μg/mL, then HMW HA 50 μg/mL, inverse relationship of binding signals): interfered with binding of HMW HA; cytokine response [3]: did not show any changes; pain (Von Frey method) versus rats which received placebo [4]: less pain; FGF-2 and IL-1Ra cytokines [5]: down-regulation; IL-6, IL-8, IL-10, VEGF, TNF-α, IL-1β and EGF (whole blood; lubricin 0.57 mg/mL before TNF-α 100 mg/mL, 60 minutes at 37° C., versus TNF-α alone): decrease; decrease of the levels of cytokines (whole blood; lubricin 0.57 mg/mL, versus TNF-α alone): 10-100%; TNF-α stimulated IFN-γ and TNF-α (whole blood; lubricin 0.57 mg/mL, versus stimulation in the absence of lubricin): most dramatic decrease
